Experiments:
[1] = tested on: immortalized human uterine smooth muscle (UTSM) cells; assay: BRD inhibitor screening by MTT cell proliferation assay, UTSM cells; type: cell-based; conditions: 24 hours and 48 hours
Protocol: (§1) The immortalized human leiomyoma cell line (HuLM) and immortalized human uterine smooth muscle (UTSM) cells were cultured and maintained in phenol red-free, Dulbecco's Modified Eagle Medium: Nutrient Mixture F-12. The cells were grown at 37° C. and 5% CO2 in an incubator with saturating humidity.
(§2) Cell proliferation was measured using a 3-(4,5-dimethylthiazol-2-yl)-2,5-diphenyltetrazolium bromide (MTT) assay. 2×10^4 UTSM or HuLM cells per well were seeded into 12-well tissue culture plates in the absence or presence of each BRD inhibitor from Table 1 for 24 hours or 48 hours. The inhibitors used in this assay were from the Epigenetic Library at the University of Illinois at Chicago. This assay was performed three times in triplicate.

[2] = tested on: immortalized human leiomyoma cell line (HuLM); assay: BRD inhibitor screening by MTT cell proliferation assay, HuLM cells; type: cell-based; conditions: 24 hours and 48 hours
Protocol: as §1, §2

HuLM cells [3] = assay: RNA-sequencing / transcriptome analysis of treated HuLM cells; type: cell-based, human; conditions: 5 μM, 48 hr
Protocol: To determine the mechanism underlying the inhibitory effect of BRD9 inhibition on the UFs, the HuLM cells were treated with BRD9 inhibitor I-BRD9 (5 μM, n=4), TP-472 (5 μM, n=3), and DMSO vehicle control (n=4) for 48 hr. RNA was isolated using Trizol. RNA quality and quantity were assessed using the Agilent bio-analyzer. Strand-specific RNA-SEQ libraries were prepared using a TruSEQ total RNA-SEQ library protocol (Illumina provided). Library quality and quantity were assessed using the Agilent bio-analyzer and libraries were sequenced using an Illumina NovaSEQ6000 (illumine provided reagents and protocols).
A variety of R packages was used for this analysis. All graphics and data wrangling were handled using the tidyverse suite of packages (available from tidyverse.org). All packages used are available from the Comprehensive R Archive Network (CRAN), Bioconductor.org, or GitHub. The reads were mapped to the human reference transcriptome using STAR, version 2.6.1d, as previously described (Dobin et al., Bioinformatics 29 (1):15-21 (2013)). The quality of raw reads, as well as the results of STAR mapping, are generated using fastqc (available from bioinformatics.babraham.ac.uk/projects/fastqc/) and multiqc (available from multiqc.info). Raw reads were mapped to the human reference transcriptome using Salmon, version 1.4.0 (available from combine-lab.github.io/salmon/). After reading mapping with Salmon, Bioconductor (available from bioconductor.org/packages/release/bioc/html/tximport) was used to read Salmon outputs into the R environment. Annotation data from Gencode V34 was used to summarize data from transcript-level to gene-level.

HuLM cells [4] = assay: Western immunoblot of HuLM cells after BRD inhibition treatment; type: cell-based, human; conditions: 0-25 μM, 48 hours
Excerpt: Cells were collected and lysed in RIPA lysis buffer with protease and phosphatase inhibitor cocktail (Thermo Scientific, Waltham, MA, USA), and the protein was quantified using the Bradford method (Bio-Rad Protein Assay kit). The antibodies used were: METTL3 (ab195352, Abcam), YTHDC1 (ab122340, Abcam), YTHDC2 (35440, Cell Signaling), YTHDF2 (ab220163, Abcam), BCL-2 (ab182858, Abcam), FN (26836, Cell Signaling), PCNA (GTX100539, Genetex), BRD2 (5848, cell signaling), BRD3 (ab50818, Abcam), BRD9 (58906, Cell Signaling). The antigen-antibody complex was detected with Trident Femto Western HRP substrate (GeneTex, Irvine, CA, USA). Specific protein bands were visualized using ChemiDoc XRS ? molecular imager (Bio-Rad, Hercules, CA, USA).
HuLM cells were cultured in phenol red-free, 10% fetal bovine serum Dulbecco's Modified Eagle Medium: Nutrient Mixture F-12 at 37° C., 5% CO2 in the absence or presence of the BRD inhibitors I-BRD9 and TP-472 for 48 hours respectively. The concentrations of both inhibitors were used in the range of 0-25 μM. Cells were collected after treatment for Western immunoblot as described above.

UTSM and HuLM cells = assay: Cell proliferation by trypan blue exclusion assay, HuLM versus UTSM cells; type: cell-based, human; conditions: 1-25 μM, 48 hours
Protocol: Cell proliferation was measured using trypan blue exclusion assay. UTSM and HuLM cells (2×10^4 cells per well) were seeded into 12-well tissue culture plates. After 24 hours the cells were cultured in the absence or presence of the BRD inhibitor I-BET762 or (+)-JQ1 at a dose range from 1-25 μM for 48 hours. DMSO was used as a vehicle control. Cells were trypsinized, collected by centrifuge, and resuspended in serum-free medium. Equal volumes of 0.4% trypan blue and cell suspension were mixed and cells were counted using a hemacytometer.

SMILES	myometrial (UTSM) cell proliferation [1]	UF (HuLM) cell proliferation [2]	Hallmark analysis: pathway alteration in response to inhibition of BRD (HuLM cells [3])	pathways altered (bioinformatic analysis of RNA sequencing) (HuLM cells [3])	expression of YTHDC1 (HuLM cells [4])	expression of YTHDC2 (HuLM cells [4])	expression of YTHDF2 (HuLM cells [4])	expression of anti-apoptosis protein BCL-2 (HuLM cells [4])	fibronectin (FN) levels (HuLM cells [4])	levels of PCNA (marker for cell proliferation) (HuLM cells [4])	expression of METTL3 (HuLM cells [4])	cellular proliferation, UF cells versus myometrium cells (UTSM and HuLM cells)
CCCS(=O)(=O)c1nc(NC2CC2)cc(-c2ccc3c(ccn3C3CC(C)(C)NC(C)(C)C3)c2)n1 [NVS-CECR2-1]	not myometrial cell proliferation	selectively inhibited UF	–	–	–	–	–	–	–	–	–	–
Cn1cc(CCn2cnc(-c3cnn(C)c3)c2-c2ccc(C#N)cc2)cn1 [BAZ2-ICR]	not myometrial cell proliferation	selectively inhibited UF	–	–	–	–	–	–	–	–	–	–
CCn1cc(-c2cccc(C(F)(F)F)c2)c2sc(C(=N)NC3CCS(=O)(=O)CC3)cc2c1=O [I-BRD9]	not myometrial cell proliferation	selectively inhibited UF	E2F, MYC Target, G2M checkpoint, and mitotic spindle pathways	altered the pathways related to biological processes, transcriptional factors	dose-dependent downregulation	dose-dependent downregulation	dose-dependent downregulation	increased the expression of the anti-apoptosis protein BCL-2	decreased FN levels	decreasing the levels of PCNA	–	–
CC(=O)c1cc(-c2cc(C(=O)NC3CC3)ccc2C)c2ncccn12 [TP-472]	not myometrial cell proliferation	selectively inhibited UF	E2F, MYC Target, G2M checkpoint, and mitotic spindle pathways	altered the pathways related to biological processes, transcriptional factors	dose-dependent downregulation	dose-dependent downregulation	–	–	decreased FN levels	decreasing the levels of PCNA	dose-dependent downregulation	–
CCNC(=O)C[C@@H]1N=C(c2ccc(Cl)cc2)c2cc(OC)ccc2-n2c(C)nnc21 [I-BET762]	–	–	–	–	–	–	–	–	–	–	–	reduced cellular proliferation more potently in UF cells than myometrium cells in a dose dependent manner
Cc1cc(=O)n(C)c2cc(N3C(=O)CC[C@H](NS(=O)(=O)CC(C)C)[C@H]3c3ccc(Cl)cc3)ccc12 [LP99]	not myometrial cell proliferation	selectively inhibited UF	–	–	–	–	–	–	–	–	–	–
